Test results taken from patent US11427548B2 (Arvinas Operations, Inc., priority 2015, dated 2022).

Target: T1, Androgen Receptor (Homo sapiens, UniProt P10275)
T1 construct: endogenous in cells; host or cells: VCaP cells
T1 sequence (P10275 1-920): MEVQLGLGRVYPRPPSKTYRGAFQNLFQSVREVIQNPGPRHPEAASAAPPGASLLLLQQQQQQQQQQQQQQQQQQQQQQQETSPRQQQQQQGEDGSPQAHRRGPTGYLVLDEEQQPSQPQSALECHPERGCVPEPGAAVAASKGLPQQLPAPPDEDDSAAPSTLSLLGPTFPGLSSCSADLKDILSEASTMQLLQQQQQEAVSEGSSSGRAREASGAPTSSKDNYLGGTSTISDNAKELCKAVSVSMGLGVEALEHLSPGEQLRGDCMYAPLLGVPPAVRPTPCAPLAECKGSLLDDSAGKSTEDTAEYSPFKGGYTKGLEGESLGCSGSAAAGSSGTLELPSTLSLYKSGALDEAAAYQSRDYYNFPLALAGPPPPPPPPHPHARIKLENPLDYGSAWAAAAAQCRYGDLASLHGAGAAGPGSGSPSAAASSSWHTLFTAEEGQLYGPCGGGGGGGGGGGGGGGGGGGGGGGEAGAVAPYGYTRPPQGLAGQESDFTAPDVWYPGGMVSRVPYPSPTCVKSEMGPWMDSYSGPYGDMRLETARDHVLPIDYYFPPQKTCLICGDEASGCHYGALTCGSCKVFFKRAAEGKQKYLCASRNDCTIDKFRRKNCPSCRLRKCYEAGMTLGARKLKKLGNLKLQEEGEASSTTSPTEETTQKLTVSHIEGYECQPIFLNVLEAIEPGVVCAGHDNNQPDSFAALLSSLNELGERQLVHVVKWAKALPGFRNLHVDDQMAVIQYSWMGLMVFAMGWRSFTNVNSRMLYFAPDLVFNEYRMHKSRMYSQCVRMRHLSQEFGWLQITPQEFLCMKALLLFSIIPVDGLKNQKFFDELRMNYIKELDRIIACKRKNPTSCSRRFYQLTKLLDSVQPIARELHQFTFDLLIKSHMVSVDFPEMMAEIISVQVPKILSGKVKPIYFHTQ
Assay: Androgen Receptor ELISA assay (PathScan AR ELISA) in VCaP cells: AR degradation, Dmax and DC50
Format: cell-based
Conditions: VCaP cells, Table 36; for DC50: read-out: VCaP DC50; for Dmax: VCaP, read-out: VCaP Dmax (%)
Procedure, shortened: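 After 24 h exposure of VCaP cells (charcoal-stripped serum, 0.1 nM R1881 agonist, 0.1% DMSO) to seven half-log compound concentrations, residual AR in lysates was measured by PathScan ELISA (TMB absorbance, 450 nm). Cells were plated at 30,000/well and grown at least 3 days beforehand.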

DC50 [nM] | Dmax [%] | Structure (SMILES)
< 50 | > 71 | Cc1ncsc1-c1ccc([C@H](C)NC(=O)C2C[C@@H](O)CN2C(=O)C(NC(=O)CN2CCN(CCN3CCN(c4ccc(C(=O)N[C@H]5C(C)(C)[C@H](Oc6ccc(C#N)c(Cl)c6)C5(C)C)cn4)CC3)CC2)C(C)(C)C)cc1 (stereo partly drawn) [Example 789, N-((1r,3r)-3-(3-chloro-4-cyanophenoxy)-2,2,4,4-tetramethylcyclobutyl)-6-(4-(2-(4-(2-(((S)-1-((2S,4R)-4-hydroxy-2-(((S)-1-(4-(4-methylthiazol-5-yl)phenyl)ethyl)carbamoyl)pyrrolidin-1-yl)-3,3-dimethyl-1-oxobutan-2-yl)amino)-2-oxoethyl)piperazin-1-yl)ethyl)piperazin-1-yl)nicotinamide]
> 501 | 26 to 50 | Cc1ncsc1-c1ccc([C@H](C)NC(=O)[C@@H]2C[C@@H](O)CN2C(=O)[C@@H](NC(=O)COCCN2CCN(Cc3cc(C(=O)N[C@@H](C)Cn4ccc(-c5ccc(C#N)c(Cl)c5)n4)n[nH]3)CC2)C(C)(C)C)cc1 [Example 790, N-((S)-1-(3-(3-chloro-4-cyanophenyl)-1H-pyrazol-1-yl)propan-2-yl)-5-((4-(2-(2-(((S)-1-((2S,4R)-4-hydroxy-2-(((S)-1-(4-(4-methylthiazol-5-yl)phenyl)ethyl)carbamoyl)pyrrolidin-1-yl)-3,3-dimethyl-1-oxobutan-2-yl)amino)-2-oxoethoxy)ethyl)piperazin-1-yl)methyl)-1H-pyrazole-3-carboxamide]
> 501 | < 25 | Cc1ncsc1-c1ccc([C@H](C)NC(=O)[C@@H]2C[C@@H](O)CN2C(=O)C(NC(=O)CO[C@H]2CCCC[C@@H]2N2CCN(CCOc3ccc(C(=O)N[C@H]4C(C)(C)[C@H](Oc5ccc(C#N)c(Cl)c5)C4(C)C)cc3)CC2)C(C)(C)C)cc1 (stereo partly drawn) [Example 791, (2S,4R)-1-((S)-2-(2-(((1S,2S)-2-(4-(2-(4-(((1r,3r)-3-(3-chloro-4-cyanophenoxy)-2,2,4,4-tetramethylcyclobutyl)carbamoyl)phenoxy)ethyl)piperazin-1-yl)cyclohexyl)oxy)acetamido)-3,3-dimethylbutanoyl)-4-hydroxy-N-((S)-1-(4-(4-methylthiazol-5-yl)phenyl)ethyl)pyrrolidine-2-carboxamide]
> 501 | 26 to 50 | Cc1ncsc1-c1ccc([C@H](C)NC(=O)[C@@H]2C[C@@H](O)CN2C(=O)C(NC(=O)CO[C@@H]2CCCC[C@H]2N2CCN(CCOc3ccc(C(=O)N[C@H]4C(C)(C)[C@H](Oc5ccc(C#N)c(Cl)c5)C4(C)C)cc3)CC2)C(C)(C)C)cc1 (stereo partly drawn) [Example 792, (2S,4R)-1-((S)-2-(2-(((1R,2R)-2-(4-(2-(4-(((1r,3r)-3-(3-chloro-4-cyanophenoxy)-2,2,4,4-tetramethylcyclobutyl)carbamoyl)phenoxy)ethyl)piperazin-1-yl)cyclohexyl)oxy)acetamido)-3,3-dimethylbutanoyl)-4-hydroxy-N-((S)-1-(4-(4-methylthiazol-5-yl)phenyl)ethyl)pyrrolidine-2-carboxamide]
< 50 | > 71 | COc1cc(-c2scnc2C)ccc1CNC(=O)C1C[C@@H](O)CN1C(=O)[C@@H](NC(=O)COCCN1CCN(c2ccc(C(=O)N[C@H]3C(C)(C)[C@H](Oc4ccc(C#N)c(Cl)c4)C3(C)C)cn2)CC1)C(C)(C)C (stereo partly drawn) [Example 793, N-((1r,3r)-3-(3-chloro-4-cyanophenoxy)-2,2,4,4-tetramethylcyclobutyl)-6-(4-(2-(2-(((S)-1-((2S,4R)-4-hydroxy-2-((2-methoxy-4-(4-methylthiazol-5-yl)benzyl)carbamoyl)pyrrolidin-1-yl)-3,3-dimethyl-1-oxobutan-2-yl)amino)-2-oxoethoxy)ethyl)piperazin-1-yl)nicotinamide]
< 50 | 51 to 70 | Cc1ncsc1-c1ccc([C@H](C)NC(=O)[C@@H]2C[C@@H](O)CN2C(=O)[C@@H](NC(=O)CN2CC(N3CCN(c4ccc(C(=O)N[C@H]5C(C)(C)[C@H](Oc6ccc(C#N)c(Cl)c6)C5(C)C)cn4)CC3)C2)C(C)(C)C)cc1 [Example 794, N-((1r,3r)-3-(3-chloro-4-cyanophenoxy)-2,2,4,4-tetramethylcyclobutyl)-6-(4-(1-(2-(((S)-1-((2S,4R)-4-hydroxy-2-(((S)-1-(4-(4-methylthiazol-5-yl)phenyl)ethyl)carbamoyl)pyrrolidin-1-yl)-3,3-dimethyl-1-oxobutan-2-yl)amino)-2-oxoethyl)azetidin-3-yl)piperazin-1-yl)nicotinamide]
< 50 | > 71 | Cc1ncsc1-c1ccc([C@H](C)NC(=O)[C@@H]2C[C@@H](O)CN2C(=O)[C@@H](NC(=O)CN2CCN(C3CN(c4ccc(C(=O)N[C@H]5C(C)(C)[C@H](Oc6ccc(C#N)c(Cl)c6)C5(C)C)cn4)C3)CC2)C(C)(C)C)cc1 [Example 795, N-((1r,3r)-3-(3-chloro-4-cyanophenoxy)-2,2,4,4-tetramethylcyclobutyl)-6-(3-(4-(2-(((S)-1-((2S,4R)-4-hydroxy-2-(((S)-1-(4-(4-methylthiazol-5-yl)phenyl)ethyl)carbamoyl)pyrrolidin-1-yl)-3,3-dimethyl-1-oxobutan-2-yl)amino)-2-oxoethyl)piperazin-1-yl)azetidin-1-yl)nicotinamide]
> 501 | 26 to 50 | Cc1ncsc1-c1ccc([C@H](C)NC(=O)[C@@H]2C[C@@H](O)CN2C(=O)[C@H](c2cc(N3CCN(CCCc4ccc(C(=O)N[C@H]5C(C)(C)[C@H](Oc6ccc(C#N)c(Cl)c6)C5(C)C)cc4)CC3)no2)C(C)C)cc1 [Example 796, (2S,4R)-1-((S)-2-(3-(4-(3-(4-(((1r,3r)-3-(3-chloro-4-cyanophenoxy)-2,2,4,4-tetramethylcyclobutyl)carbamoyl)phenyl)propyl)piperazin-1-yl)isoxazol-5-yl)-3-methylbutanoyl)-4-hydroxy-N-((S)-1-(4-(4-methylthiazol-5-yl)phenyl)ethyl)pyrrolidine-2-carboxamide]
< 50 | 51 to 70 | Cc1ncsc1-c1ccc([C@H](C)NC(=O)[C@@H]2C[C@@H](O)CN2C(=O)[C@@H](c2cc(N3CCN(CCCc4ccc(C(=O)N[C@H]5C(C)(C)[C@H](Oc6ccc(C#N)c(Cl)c6)C5(C)C)cc4)CC3)no2)C(C)C)cc1 [Example 797, (2S,4R)-1-((R)-2-(3-(4-(3-(4-(((1r,3r)-3-(3-chloro-4-cyanophenoxy)-2,2,4,4-tetramethylcyclobutyl)carbamoyl)phenyl)propyl)piperazin-1-yl)isoxazol-5-yl)-3-methylbutanoyl)-4-hydroxy-N-((S)-1-(4-(4-methylthiazol-5-yl)phenyl)ethyl)pyrrolidine-2-carboxamide]
> 501 | < 25 | Cc1ncsc1-c1ccc([C@H](C)NC(=O)[C@@H]2C[C@@H](O)CN2C(=O)[C@@H](NC(=O)CCCCN2C[C@H]3C[C@@H]2CN3c2ccc(C(=O)N[C@H]3C[C@H](Oc4ccc(C#N)c(Cl)c4)C3)cn2)C(C)(C)C)cc1 [Example 798, N-((1r,3R)-3-(3-chloro-4-cyanophenoxy)cyclobutyl)-6-((1R,4R)-5-(5-(((S)-1-((2S,4R)-4-hydroxy-2-(((S)-1-(4-(4-methylthiazol-5-yl)phenyl)ethyl)carbamoyl)pyrrolidin-1-yl)-3,3-dimethyl-1-oxobutan-2-yl)amino)-5-oxopentyl)-2,5-diazabicyclo[2.2.1]heptan-2-yl)nicotinamide]
< 50 | 51 to 70 | Cc1ncsc1-c1ccc([C@H](C)NC(=O)C2C[C@@H](O)CN2C(=O)C(NC(=O)CCC(F)(F)CN2CCN(c3ccc(C(=O)N[C@H]4C(C)(C)[C@H](Oc5ccc(C#N)c(Cl)c5)C4(C)C)cn3)CC2)C(C)(C)C)cc1 (stereo partly drawn) [Example 799, N-((1r,3r)-3-(3-chloro-4-cyanophenoxy)-2,2,4,4-tetramethylcyclobutyl)-6-(4-(2,2-difluoro-5-(((S)-1-((2S,4R)-4-hydroxy-2-(((S)-1-(4-(4-methylthiazol-5-yl)phenyl)ethyl)carbamoyl)pyrrolidin-1-yl)-3,3-dimethyl-1-oxobutan-2-yl)amino)-5-oxopentyl)piperazin-1-yl)nicotinamide]
< 50 | > 71 | Cc1ncsc1-c1ccc(C(CO)NC(=O)[C@@H]2C[C@@H](O)CN2C(=O)[C@@H](NC(=O)CCC(F)(F)CN2CCN(c3ccc(C(=O)N[C@H]4C(C)(C)[C@H](Oc5ccc(C#N)c(Cl)c5)C4(C)C)cn3)CC2)C(C)(C)C)cc1 (stereo partly drawn) [Example 800, N-((1r,3r)-3-(3-chloro-4-cyanophenoxy)-2,2,4,4-tetramethylcyclobutyl)-6-(4-(2,2-difluoro-5-(((S)-1-((2S,4R)-4-hydroxy-2-(((R)-2-hydroxy-1-(4-(4-methylthiazol-5-yl)phenyl)ethyl)carbamoyl)pyrrolidin-1-yl)-3,3-dimethyl-1-oxobutan-2-yl)amino)-5-oxopentyl)piperazin-1-yl)nicotinamide]
